In US9884094B2, “Method of treating diabetes mellitus” (Novo Nordisk A/S, priority 2012, dated 2018):

How the values were obtained:
human insulin receptor = human insulin receptor (Homo sapiens, UniProt P06213); experiment: Insulin receptor binding, SPA antibody capture assay (Assay I); details: recombinant human insulin receptor, A14 Tyr[125I]-human insulin
Method: A total of 100 μl was then added and a dilution series is made from appropriate samples. […] The phases were the then separated by centrifugation for 1 min and the plates counted in a Topcounter. The binding data were fitted using the nonlinear regression algorithm in the GraphPad Prism 2.01 (GraphPad Software, San Diego, Calif.).
Specific antibodies (F12) were produced by monoclonal technique: RBF mice were immunized by injecting 50 μg of purified mIR in FCA subcutaneously followed by two injections with 20 μg of mIR in FIA. […] Supernatants were screened for antibody production in a mIR specific ELISA. Positive wells were cloned and tested in Western blotting.

[1] = Hydrophobicity k′rel by RP-HPLC relative to human insulin; assay type: physicochemical; details: LiChrosorb RP18, isocratic, 40° C., pH 7.3
Method: The elution was monitored by following the UV absorption of the eluate at 214 nm. Void time, t0, was found by injecting 0.1 mM sodium nitrate.

human insulin receptor, sequence (P06213 28-1370 isoform P06213-2 limits assumed): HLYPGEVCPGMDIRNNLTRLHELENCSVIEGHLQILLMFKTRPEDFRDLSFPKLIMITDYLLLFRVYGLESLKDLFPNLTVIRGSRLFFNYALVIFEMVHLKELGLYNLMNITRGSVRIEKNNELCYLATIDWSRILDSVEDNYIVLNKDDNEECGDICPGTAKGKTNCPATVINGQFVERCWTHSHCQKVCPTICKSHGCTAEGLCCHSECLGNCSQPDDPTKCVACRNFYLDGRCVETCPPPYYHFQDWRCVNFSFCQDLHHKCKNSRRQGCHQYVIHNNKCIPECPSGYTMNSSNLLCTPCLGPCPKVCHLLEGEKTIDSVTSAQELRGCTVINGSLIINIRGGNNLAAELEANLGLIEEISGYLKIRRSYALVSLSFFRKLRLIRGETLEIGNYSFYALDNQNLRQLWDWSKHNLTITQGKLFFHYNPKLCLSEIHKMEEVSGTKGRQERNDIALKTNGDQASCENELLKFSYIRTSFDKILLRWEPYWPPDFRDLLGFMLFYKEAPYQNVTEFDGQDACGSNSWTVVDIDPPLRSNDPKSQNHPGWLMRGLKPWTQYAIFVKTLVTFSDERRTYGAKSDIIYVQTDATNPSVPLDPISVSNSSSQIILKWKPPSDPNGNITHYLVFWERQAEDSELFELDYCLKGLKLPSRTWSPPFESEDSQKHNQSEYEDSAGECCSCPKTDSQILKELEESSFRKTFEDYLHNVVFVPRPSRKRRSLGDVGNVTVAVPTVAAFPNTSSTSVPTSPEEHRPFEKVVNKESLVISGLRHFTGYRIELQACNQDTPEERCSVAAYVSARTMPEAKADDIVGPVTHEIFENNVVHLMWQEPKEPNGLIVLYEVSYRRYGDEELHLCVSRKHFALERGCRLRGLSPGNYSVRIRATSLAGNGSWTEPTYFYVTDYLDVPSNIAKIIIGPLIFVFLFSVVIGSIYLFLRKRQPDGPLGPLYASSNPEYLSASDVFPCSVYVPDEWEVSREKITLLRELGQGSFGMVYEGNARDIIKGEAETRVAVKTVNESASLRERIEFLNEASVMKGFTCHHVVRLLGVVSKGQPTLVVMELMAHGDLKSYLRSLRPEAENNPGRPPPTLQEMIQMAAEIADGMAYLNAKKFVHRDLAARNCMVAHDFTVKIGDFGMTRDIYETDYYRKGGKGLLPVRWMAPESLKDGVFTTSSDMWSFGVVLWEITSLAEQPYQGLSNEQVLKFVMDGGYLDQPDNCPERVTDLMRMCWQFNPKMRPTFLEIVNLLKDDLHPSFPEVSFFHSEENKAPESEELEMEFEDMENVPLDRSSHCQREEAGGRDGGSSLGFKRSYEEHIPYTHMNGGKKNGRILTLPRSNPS

Row | Substance | Receptor binding (% of human insulin) (human insulin receptor) | k′rel (hydrophobic index relative to human insulin) [1]
1 | N^εB29—(N-(L-Glu-OC(CH2)14CO—) des(B30) Human Insulin | 9.4 % of human insulin | 1.17
2 | N^εB29—(N-(L-Sar-OC(CH2)13CO-γ-L-Glu) des(B30) Human Insulin | 20 % of human insulin | 0.63
3 | N^εB29—(N^α—(HOOC(CH2)16CO)-γ-Glu-N-(γ-Glu)) des(B30) Human Insulin | – | 1.17
4 | N^εB29—(N—(HOOC(CH2)14CO-ε-L-LysCO—) des(B30) Human Insulin | 5.7 % of human insulin | 0.90
5 | N^εB29—[N—(HOOC(CH2)16CO)—N-(carboxymethyl)-β-Ala] des(B30) Human Insulin | 9.4 % of human insulin | –
6 | NεB29-(Nα—(HOOC(CH2)16CO)-γ-Glu) des(B30) Human Insulin | 9.2 % of human insulin | 1.15
